Experimental data taken from patent US9820943B2, “Micronized amoxicillin” (DSM SINOCHEM PHARMACEUTICALS NETHERLANDS B.V., priority 2013, dated 2017).

Assay: Powder dissolution, visual determination of clarity in drinking water
Assay type: physicochemical
Conditions: 3.0 g in 1000 mL drinking water, stirred 2 min at 300±10 rpm, 30±1° C.; trihydrate
Method: Non-micronized amoxicillin trihydrate (3.0 g) was added to a 2 L beaker and drinking water (1000 mL) was added. The mixture was stirred for 2 min at 300±10 rpm at 30±1° C. After two minutes the stirrer was stopped. The same procedure was applied to a sample of micronized amoxicillin trihydrate. Both mixtures were visually observed.

Visual appearance of the mixture (clarity)	SMILES
clear	CC1(C)S[C@@H]2[C@H](NC(=O)[C@H](N)c3ccc(O)cc3)C(=O)N2[C@H]1C(=O)O [micronized amoxicillin trihydrate, amoxicillin trihydrate]
cloudy	CC1(C)S[C@@H]2[C@H](NC(=O)[C@H](N)c3ccc(O)cc3)C(=O)N2[C@H]1C(=O)O [Non-micronized amoxicillin trihydrate, amoxicillin trihydrate]
